# Test results from patent publication US5198445A, “Composition and use of substituted 3-thio-2-propynenitriles as industrial antimicrobials” (The Dow Chemical Company, priority 1992, dated 1993).
# Read-outs that look alike come from different tables or passages of the source.
# Key:
# Bacillus subtilis (Bs) = assay: MIC in nutrient agar, Bacillus subtilis; format: cell-based, Bacillus subtilis ATCC 8473
# Description: (§1) The minimum inhibitory concentration (MIC) for the compounds listed in Table I is determined for 9 bacteria, using nutrient agar, and 7 yeast and fungi, using malt yeast agar. A one percent solution of the test compound is prepared in a mixture of acetone and water. Nutrient agar is prepared at pH 6.8, representing a neutral medium, and at pH 8.2, representing an alkaline medium. The nutrient agars are prepared by adding 23 g of nutrient agar to one-liter of deionized water. In addition, the alkaline medium is prepared by adjusting a 0.04M solution of N-[tris-(hydroxymethyl)methyl]-glycine buffered deionized water with concentrated sodium hydroxide to a pH of […]. Malt yeast agar is prepared by adding 3 g yeast extract and 45 g malt agar per liter of deionized water. The specific agar is dispensed in 30 ml aliquots into 25×200 mm test tubes, capped and autoclaved for 15 minutes at 115° C. The test tubes containing the agar are cooled in a water bath until the temperature of the agar is 48° C. Then, an appropriate amount of the one percent solution of the test compound is added (except in the controls where no compound is added) to the respective test tubes so that the final concentrations are 500, 250, 100, 50, 25, 10, 5, 2.5, 1.0 and zero parts per million of the test compound in the agar, thus having a known concentration of test compound dispersed therein. The contents of the test tubes are then transferred to respective petri plates. After drying for 24 hours, the petri plates containing nutrient agar are inoculated with bacteria and those containing malt yeast agar are inoculated with yeast and fungi.
# (§2) The inoculation with bacteria is accomplished by using the following procedure. Twenty-four hour-cultures of each of the bacteria are prepared by incubating the respective bacteria in tubes containing nutrient broth for 24 hours at 30° C. in a shaker. Dilutions of each of the 24 hour-cultures are made so that nine separate suspensions (one for each of the nine test bacteria) are made, each containing 10^8 colony forming units (CFU) per ml of suspension of a particular bacteria. Aliquots of 0.3 ml of each of the bacterial suspensions are used to fill the individual wells of Steer's Replicator. For each microbial suspension, 0.3 ml was used to fill three wells (i.e., three wells of 0.3 ml each) so that for the nine different bacteria, 27 wells are filled. The Steer's Replicator is then used to inoculate both the neutral and alkaline pH nutrient agar petri plates.
# (§3) The inoculated petri plates are incubated at 30° C. for 48 hours and then read to determine if the test compound which is incorporated into the agar prevented growth of the respective bacteria.
# (§4) Table II lists the bacteria, yeast and fungi used in the MIC test described above along with their respective American Type Culture Collection (ATCC) identification numbers.
# (§5) The following MIC and MEC antimicrobial tests, whose results are shown in Tables XIII-XVII, are performed using the same methods as described hereinabove.
# Proteus vulgaris (Pv) = assay: MIC in nutrient agar, Proteus vulgaris; format: cell-based, Proteus vulgaris ATCC 881
# Description: as §1, §2, §3, §4, §5
# [1] = system: Pseudomonas aeruginosa (PRD-10); assay: MIC in nutrient agar, Pseudomonas aeruginosa PRD-10; format: cell-based, Pseudomonas aeruginosa ATCC 15442
# Description: as §1, §2, §3, §4, §5
# [2] = system: Staphylococcus aureus (Sa); assay: MIC in nutrient agar, Staphylococcus aureus; format: cell-based, Staphylococcus aureus ATCC 6538
# Description: as §1, §2, §3, §4, §5
# [3] = system: Salmonella choleraesuis (Sc); assay: MIC in nutrient agar, Salmonella choleraesuis; format: cell-based, Salmonella choleraesuis ATCC 10708
# Description: as §1, §2, §3, §4, §5
# [4] = system: Penicillium chrysogenum (Pc); assay: MIC in malt yeast agar, Penicillium chrysogenum; format: cell-based, Penicillium chrysogenum ATCC 9480; conditions: read-out: Minimum Inhibitory Concentration, Pc
# Description: as §1
# (§6) The inoculation with the yeast and fungi is accomplished as follows. Cultures of yeast and fungi are incubated for seven days on malt yeast agar at 30° C. These cultures are used to prepare suspensions by the following procedure. A suspension of each organism is prepared by adding 10 ml of sterile saline and 10 microliters of octylphenoxy polyethoxy ethanol (TRITON® X-100, a trademark of Rohm & Haas Company) to the agar slant of yeast or fungi. The sterile saline/octylphenoxy polyethoxy ethanol solution is then agitated with a sterile swab to suspend the microorganism grown on the slant. Each resulting suspension is diluted into sterile saline (1 part suspension: 9 parts sterile saline). Aliquots of these dilutions are placed in individual wells of Steer's Replicator and petri plates inoculated as previously described. The petri plates are incubated at 30° C. and read after 48 hours for yeast and 72 hours for fungi.
# as §4, §5
# Fusarium oxysporum (Fo) = assay: MIC in malt yeast agar, Fusarium oxysporum; format: cell-based, Fusarium oxysporum ATCC 48112; conditions: read-out: Minimum Inhibitory Concentration, Fo
# Description: as §1, §6, §4, §5
# [5] = system: Pseudomonas aeruginosa (Pa); assay: MIC in nutrient agar, Pseudomonas aeruginosa; format: cell-based, Pseudomonas aeruginosa ATCC 10145
# Description: as §1, §2, §3, §4, §5
# [6] = system: Enterobacter aerogenes (Ea); assay: MIC in nutrient agar, Enterobacter aerogenes; format: cell-based, Enterobacter aerogenes ATCC 13048
# Description: as §1, §2, §3, §4, §5
# Candida albicans (Ca) = assay: MIC in malt yeast agar, Candida albicans; format: cell-based, Candida albicans ATCC 10231; conditions: read-out: Minimum Inhibitory Concentration, Ca
# Description: as §1, §6, §4, §5
# Trichoderma viride (Tv) = assay: MIC in malt yeast agar, Trichoderma viride; format: cell-based, Trichoderma viride ATCC 8678; conditions: read-out: Minimum Inhibitory Concentration, Tv
# Description: as §1, §6, §4, §5
# [7] = Degradation of Z isomer to 3-methylthio-2-propynenitrile; format: physicochemical
# Description: It has also been discovered that the Z isomer of an appropriately-substituted 2-chloro-3-thio-2-propenenitrile precursor may degrade in situ to a like-substituted 3-thio-2-propynenitrile.
# Aspergillus niger (An) = assay: MIC in malt yeast agar, Aspergillus niger; format: cell-based, Aspergillus niger ATCC 16404; conditions: read-out: Minimum Inhibitory Concentration, An
# Description: as §1, §6, §4, §5
# [8] = system: Klebsiella pneumoniae (Kp); assay: MIC in nutrient agar, Klebsiella pneumoniae; format: cell-based, Klebsiella pneumoniae ATCC 8308
# Description: as §1, §2, §3, §4, §5
# Escherichia coli (Ec) = assay: MIC in nutrient agar, Escherichia coli; format: cell-based, Escherichia coli ATCC 11229
# Description: as §1, §2, §3, §4, §5
# Bacteria Species = assay: MIC test in bacteria species, comparison over the organisms of Table XIV; format: cell-based, bacteria listed in Table II; conditions: pH 8.2
# Description: The minimum inhibitory concentration (MIC) for the compounds listed in Table I is determined for 9 bacteria, using nutrient agar, and 7 yeast and fungi, using malt yeast agar. A one percent solution of the test compound is prepared in a mixture of acetone and water. Nutrient agar is prepared at pH 6.8, representing a neutral medium, and at pH 8.2, representing an alkaline medium. The nutrient agars are prepared by adding 23 g of nutrient agar to one-liter of deionized water. In addition, the alkaline medium is prepared by adjusting a 0.04M solution of N-[tris-(hydroxymethyl)methyl]-glycine buffered deionized water with concentrated sodium hydroxide to a pH of […]. Malt yeast agar is prepared by adding 3 g yeast extract and 45 g malt agar per liter of deionized water. The specific agar is dispensed in 30 ml aliquots into 25×200 mm test tubes, capped and autoclaved for 15 minutes at 115° C. The test tubes containing the agar are cooled in a water bath until the temperature of the agar is 48° C. […]
# The inoculated petri plates are incubated at 30° C. for 48 hours and then read to determine if the test compound which is incorporated into the agar prevented growth of the respective bacteria. […]
# [9] = system: Saccharomyces cerevisiae (Sc); assay: MIC in malt yeast agar, Saccharomyces cerevisiae; format: cell-based, Saccharomyces cerevisiae ATCC 4105; conditions: read-out: Minimum Inhibitory Concentration, Sc
# Description: as §1, §6, §4, §5
# [10] = system: Aureobasidium pullulan (Ap); assay: MIC in malt yeast agar, Aureobasidium pullulan; format: cell-based, Aureobasidium pullulan ATCC 16622; conditions: read-out: Minimum Inhibitory Concentration, Ap
# Description: as §1, §6, §4, §5
# [11] = pH 6.8, read-out: Minimum Inhibitory Concentration, Pv
# [12] = pH 8.2, read-out: Minimum Inhibitory Concentration, Pv
# [13] = Pseudomonas aeruginosa, pH 6.8, read-out: Minimum Inhibitory Concentration, PRD
# [14] = Salmonella enterica, CHOLERAESUIS, pH 6.8, read-out: Minimum Inhibitory Concentration, Sc
# [15] = Salmonella enterica, CHOLERAESUIS, pH 8.2, read-out: Minimum Inhibitory Concentration, Sc
# [16] = pH 6.8, read-out: Minimum Inhibitory Concentration, Pa
# [17] = pH 8.2, read-out: Minimum Inhibitory Concentration, Pa
# [18] = Klebsiella aerogenes, pH 6.8, read-out: Minimum Inhibitory Concentration, Ea
# [19] = Klebsiella aerogenes, pH 8.2, read-out: Minimum Inhibitory Concentration, Ea
# [20] = pH 6.8, read-out: Minimum Inhibitory Concentration, Kp
# [21] = pH 8.2, read-out: Minimum Inhibitory Concentration, Kp
# [22] = Escherichia coli, pH 6.8, read-out: Minimum Inhibitory Concentration, Ec
# [23] = Escherichia coli, pH 8.2, read-out: Minimum Inhibitory Concentration, Ec
# [24] = Bacillus subtilis, pH 6.8; read-out: Minimum Inhibitory Concentration, Bs
# [25] = Bacillus subtilis, pH 8.2; read-out: Minimum Inhibitory Concentration, Bs
# [26] = Pseudomonas aeruginosa, pH 8.2; read-out: Minimum Inhibitory Concentration, PRD
# [27] = Staphylococcus aureus, pH 6.8; read-out: Minimum Inhibitory Concentration, Sa
# [28] = Staphylococcus aureus, pH 8.2; read-out: Minimum Inhibitory Concentration, Sa
Compound,MIC (Proteus vulgaris (Pv); [11]) [µg/mL],MIC (Proteus vulgaris (Pv); [12]) [µg/mL],"MIC [1, 13] [µg/mL]","MIC [3, 14] [µg/mL]","MIC [3, 15] [µg/mL]","MIC [5, 16] [µg/mL]","MIC [5, 17] [µg/mL]","MIC [6, 18] [µg/mL]","MIC [6, 19] [µg/mL]","MIC [8, 20] [µg/mL]","MIC [8, 21] [µg/mL]",MIC (Escherichia coli (Ec); [22]) [µg/mL],MIC (Escherichia coli (Ec); [23]) [µg/mL],MIC [9] [µg/mL],MIC (Bacillus subtilis (Bs); [24]) [µg/mL],MIC (Bacillus subtilis (Bs); [25]) [µg/mL],"MIC [1, 26] [µg/mL]","MIC [2, 27] [µg/mL]","MIC [2, 28] [µg/mL]",MIC ([4]; malt yeast agar) [µg/mL],further results
"CS/C=C(\Cl)C#N [Compound I, Z isomer of 2-chloro-3-(methylthio)-2-propenenitrile]",50,5,50,50,10,50,10,50,10,50,10,50,10,100,–,–,–,–,–,–,"MIC (Bacillus subtilis (Bs); Bacillus subtilis, pH 6.8, read-out: Minimum Inhibitory Concentration, Bs): 50 µg/mL; MIC (Bacillus subtilis (Bs); Bacillus subtilis, pH 8.2, read-out: Minimum Inhibitory Concentration, Bs): 10 µg/mL; MIC ([1]; Pseudomonas aeruginosa, pH 8.2, read-out: Minimum Inhibitory Concentration, PRD): 10 µg/mL; MIC ([2]; Staphylococcus aureus, pH 6.8, read-out: Minimum Inhibitory Concentration, Sa): 50 µg/mL; MIC ([2]; Staphylococcus aureus, pH 8.2, read-out: Minimum Inhibitory Concentration, Sa): 10 µg/mL; MIC [4]: 50 µg/mL; MIC (Fusarium oxysporum (Fo)): 100 µg/mL; MIC (Candida albicans (Ca)): 100 µg/mL; MIC (Trichoderma viride (Tv)): 50 µg/mL; half-life for the degradation of the Z isomer to 3-methylthio-2-propynenitrile ([7]; pH 7): approximately two; half-life for the degradation of the Z isomer to 3-methylthio-2-propynenitrile ([7]; pH 9): approximately two; MIC (Aspergillus niger (An)): 50 µg/mL; antimicrobial activity compared with 3-methylthio-2-propynenitrile (Compound A) (Bacteria Species): essentially equivalent; antimicrobial activity relative to the E isomer (Compound H) (Bacteria Species): 25-50 times greater; MIC [10]: 50 µg/mL"
"CCCCCCCCCCSC#CC#N [E, 3-decylthio-2-propynenitrile]",> 500,> 500,> 500,> 500,> 500,> 500,500,> 500,> 500,> 500,> 500,> 500,–,25,100,25,25,25,25,500,"MIC (Fusarium oxysporum (Fo); malt yeast agar): 500 µg/mL; MIC (Candida albicans (Ca); malt yeast agar): > 500 µg/mL; MIC (Trichoderma viride (Tv); malt yeast agar): 500 µg/mL; MIC (Aspergillus niger (An); malt yeast agar): > 500 µg/mL; MIC (Escherichia coli (Ec); Escherichia coli, pH 8.2; read-out: Minimum Inhibitory Concentration, Ec): 100 µg/mL; MIC ([10]; malt yeast agar): > 500 µg/mL"
"CCCCCCCCCCCCSC#CC#N [F, 3-dodecylthio-2-propynenitrile]",> 500,> 500,–,–,–,> 500,500,–,–,> 500,> 500,–,> 500,–,100,100,100,> 500,25,500,"MIC ([1]; Pseudomonas aeruginosa, pH 6.8; read-out: Minimum Inhibitory Concentration, PRD): > 500 µg/mL; MIC ([3]; Salmonella enterica, CHOLERAESUIS, pH 6.8; read-out: Minimum Inhibitory Concentration, Sc): > 500 µg/mL; MIC ([3]; Salmonella enterica, CHOLERAESUIS, pH 8.2; read-out: Minimum Inhibitory Concentration, Sc): > 500 µg/mL; MIC (Fusarium oxysporum (Fo); malt yeast agar): > 500 µg/mL; MIC ([6]; Klebsiella aerogenes, pH 6.8; read-out: Minimum Inhibitory Concentration, Ea): > 500 µg/mL; MIC ([6]; Klebsiella aerogenes, pH 8.2; read-out: Minimum Inhibitory Concentration, Ea): > 500 µg/mL; MIC (Candida albicans (Ca); malt yeast agar): > 500 µg/mL; MIC (Trichoderma viride (Tv); malt yeast agar): > 500 µg/mL; MIC (Aspergillus niger (An); malt yeast agar): > 500 µg/mL; MIC (Escherichia coli (Ec); Escherichia coli, pH 6.8; read-out: Minimum Inhibitory Concentration, Ec): > 500 µg/mL; MIC ([9]; malt yeast agar): > 500 µg/mL; MIC ([10]; malt yeast agar): > 500 µg/mL"
